Results published in US10677783B2, “Method for evaluating effect of cytokine on metabolic activity of cytochrome P450, and drug screening method” (Corning Incorporated, priority 2012, dated 2020).

System: CYP3A4
Test: CYP3A4 mRNA expression by RT-qPCR in spheroid-shaped FLC-4 cells (example, MICRO-SPACE)
Type: cell-based, human
Excerpt: A plurality of culture chambers 10a are formed on the bottom culture surface of each well 21a. Each culture chamber 10a includes culture rooms 11a each having the equivalent diameter D of 200 μm and the height H of 100 μm. The width W of each wall 12a is 10 μm.
As cells to be cultured, FLC-4 cells which are established hepatocyte cell lines […] were used.
As a culture medium, a DMEM/F 12 culture medium containing 10% fetal bovine serum (FBS) was used. A cell suspension was adjusted at a cell seeding density of 16×10^5 cells/mL.
The cells were cultured in a CO2 incubator for 10 to 11 days. The culture medium was replaced once every three days.
The total amount of old culture medium was removed from each well by using a pipette (culture medium removing process).
A test solution or a control solution was added to each well (test solution addition process).
The cells were incubated in a CO2 incubator for eight hours, 24 hours, or 48 hours at 37° C. (contact process).
The test solution was obtained in such a manner that the cytokine was dissolved at each concentration shown in Table 1 in a DMEM/F12 solution (DMEM/E12 FBS(−)) containing no serum.
In an RNA extraction, one sample corresponding to two wells 21a of the culture plate 1a was extracted according to the protocol of NucleoSpin® RNAII (Macherey-Nagel). Only the portion to be subjected to Dnase treatment was modified, and DNaseI recombinant, RNase-free (Roche, Branchburg, N.J., USA) was used. The total RNA underwent reverse transcription reaction using High-Capacity cDNA Reverse Transcription Kits (Applied. Biosystems, Foster City, Calif., USA) and an attached random hexamer primer, and the first strand cDNA was synthesized.
The analysis was made using a total amount of 20 μL of reaction liquid containing 9.6 μL of EagleTaq Master Mix with ROX (Roche, Branchburg, N.J., USA), 0.96 μL of 20× Assays-on-Demand™ Gene Expression Assay Mix (Applied Biosystems), 7.1 μL of sterilized MiliQ water, and 1.8 μL of cDNA diluted by a factor of 5, and the reaction liquid was measured by Real-time PCR.

Row | Compound | value of the metabolic function of CYP3A4 (mRNA expression level), third test solution versus second test solution (10 ng/mL EGF + 5 μM Gefitinib vs 10 ng/mL EGF alone, FIG. 20) | determination of the drug's effect on the drug-metabolizing function of the cytochrome P450 (10 ng/mL EGF + 5 μM Gefitinib, first to third test solutions compared) | gene expression level of CYP3A4 versus contact time (spheroid-shaped established hepatocyte cell line, contact for 0, four and eight hours, FIG. 9)
1 | COc1cc2ncnc(Nc3ccc(F)c(Cl)c3)c2cc1OCCCN1CCOCC1 [Gefitinib, reference compound] | three times higher | restores the drug-metabolizing function of the cytochrome P450 | 
2 | interleukin-1β |  |  | decreases over time
